Experimental data taken from ChEMBL document CHEMBL3046649, “Fungitoxic and Phytotoxic Activities of Cinnamic Acid Esters and Amides” (2000).

Legend:
Pythium [1] = assay: Fungitoxic activity against Pythium sp. assessed as mycelial growth inhibition at 10 ppm after 4 to 5 days by agar dilution method; settings: read-out: GI
Athelia rolfsii [2] = assay: Fungitoxic activity against Athelia rolfsii assessed as mycelial growth inhibition at 10 ppm after 4 to 5 days by agar dilution method; format: functional; settings: Agroathelia rolfsii; read-out: GI
Pythium [3] = assay: microbe, parasite or virus in culture; format: functional; settings: read-out: GI
Description: Fungitoxic activity against Pythium sp. assessed as mycelial growth inhibition at 100 ppm after 4 to 5 days by agar dilution method

Athelia rolfsii [4] = assay: microbe, parasite or virus in culture; format: functional; settings: Agroathelia rolfsii, read-out: GI
Description: Fungitoxic activity against Athelia rolfsii assessed as mycelial growth inhibition at 100 ppm after 4 to 5 days by agar dilution method

[5] = test system: Brassica rapa subsp. chinensis; assay: whole plant or invertebrate; format: functional; settings: 72 h, read-out: GI
Description: Phytotoxicity against Brassica rapa subsp. chinensis assessed as growth inhibition of hypocotyl at 100 ppm treated to seeds after 3 days

[6] = test system: Brassica rapa subsp. chinensis; assay: whole plant or invertebrate; format: functional; settings: 72 h, read-out: GI; remark: listed apart in the source
Description: Phytotoxicity against Brassica rapa subsp. chinensis assessed as growth inhibition of radicle at 100 ppm treated to seeds after 3 days

Compound | inhibition of growth at 10 ppm (Pythium [1]) [%] | inhibition of growth at 10 ppm (Athelia rolfsii [2]) [%] | inhibition of growth at 100 ppm (Pythium [3]) [%] | inhibition of growth at 100 ppm (Athelia rolfsii [4]) [%] | inhibition of growth at 100 ppm [5] [%] | inhibition of growth at 100 ppm [6] [%]
COC(=O)/C=C/c1ccc(Cl)cc1Cl [METHYL 3-(2,4-DICHLOROPHENYL)ACRYLATE] | 39 | 43 | 68 | 75 | 66 | 84
CC(C)CNC(=O)/C=C/c1ccccc1 [N-ISOBUTYLCINNAMAMIDE] | 23 | 29 | 74 | 82 | 34 | 78
O=C(/C=C/c1ccc(Cl)cc1Cl)OCCc1ccccc1 [PHENETHYL 3-(2,4-DICHLOROPHENYL)ACRYLATE] | 21 | 0 | 63 | 79 | 32 | 0
CCOC(=O)/C=C/c1ccc(Cl)cc1Cl [ETHYL 3-(2,4-DICHLOROPHENYL)ACRYLATE] | 19 | 32 | 76 | 93 | 54 | 29
CC(C)=CCC/C(C)=C/COC(=O)/C=C/c1ccc(C(C)C)cc1 | 8 | 21 | 72 | 88 | 30 | 0
CCOC(=O)/C=C/c1ccc(C(C)C)cc1 [ETHYL 3-(4-ISOPROPYLPHENYL)ACRYLATE] | 14 | 24 | 92 | 78 | 44 | 0
CCc1cccc(NC(=O)/C=C/c2ccccc2)c1 | 31 | 35 | 74 | 53 | 2 | 66
CC(C)OC(=O)/C=C/c1ccc(Cl)cc1 [ISOPROPYL 3-(4-CHLOROPHENYL)ACRYLATE] | 7 | 34 | 86 | 99 | 18 | 0
CCCOC(=O)/C=C/c1ccc(Cl)cc1Cl [PROPYL 3-(2,4-DICHLOROPHENYL)ACRYLATE] | 14 | 32 | 77 | 84 | 41 | 79
CCC(C)OC(=O)/C=C/c1ccccc1 (centres undefined) [SEC-BUTYL CINNAMATE] | 21 | 40 | 69 | 70 | 18 | 20
CC(C)NC(=O)/C=C/c1ccc(C(C)C)cc1 [N-ISOPROPYL-3-(4-ISOPROPYLPHENYL)ACRYLAMIDE] | 40 | 40 | 62 | 80 | 50 | 62
CC(C)OC(=O)/C=C/c1ccc(Cl)cc1Cl [ISOPROPYL 3-(2,4-DICHLOROPHENYL)ACRYLATE] | 20 | 50 | 71 | 93 | 42 | 54
Cc1cccc(NC(=O)/C=C/c2ccccc2)c1 [N-M-TOLYLCINNAMAMIDE] | 52 | 34 | 85 | 83 | 13 | 59
COC(=O)/C=C/c1ccc(Cl)cc1 [METHYL 3-(4-CHLOROPHENYL)ACRYLATE] | 19 | 52 | 99 | 94 | 84 | 93
